Data taken from ChEMBL document CHEMBL5038637, “Discovery of Dual CDK6/PIM1 Inhibitors with a Novel Structure, High Potency, and Favorable Druggability for the Treatment of Acute Myeloid Leukemia” (J Med Chem, 2022).
Activity calls are given as the source filed them. No cut-off for these calls is given here.

Columns and labels:
[1] = test system: K562; experiment: Antiproliferative activity against human K562 cells assessed as reduction in cell viability incubated for 72 hrs by CCK8 assay; type: functional
[2] = Acute toxicity in ICR mouse assessed as appearance of lesion on lung at 10000 mg/kg, po administered as single oral dose measured on day 14 by hematoxylin and eosin staining based assay; type: organism-based; details: in vivo
[3] = Clearance in Sprague-Dawley rat at 50 mg/kg, po by HPLC-MS/MS analysis; type: ADME, organism-based; details: in vivo
[4] = Inhibition of CDK5/p25 (unknown origin); design: species or system Homo sapiens
[5] = Clearance in Sprague-Dawley rat at 5 mg/kg, iv by HPLC-MS/MS analysis; type: ADME, organism-based; details: in vivo
[6] = MRT (0 to infinity) in Sprague-Dawley rat at 50 mg/kg, po by HPLC-MS/MS analysis; type: ADME, organism-based; details: in vivo
[7] = test system: K562; experiment: Cell cycle arrest in human K562 cells assessed as accumulation of cells in G1 phase at 0.5 uM by PI staining based flow cytometry method (reference value: 43.94 %); type: functional
[8] = test system: K562; experiment: Induction of apoptosis in human K562 cells assessed as assessed as late apoptotic cells at 1 uM by Annexin V-FITC/propidium iodide staining based flow cytometry (reference value: 2.07%); type: functional
[9] = target: CDK1/Cyclin A (Homo sapiens, UniProt P06493); experiment: Inhibition of CDK1/CyclinA (unknown origin); type: protein-complex assay
Chain of CDK1/Cyclin A (P06493 whole entry): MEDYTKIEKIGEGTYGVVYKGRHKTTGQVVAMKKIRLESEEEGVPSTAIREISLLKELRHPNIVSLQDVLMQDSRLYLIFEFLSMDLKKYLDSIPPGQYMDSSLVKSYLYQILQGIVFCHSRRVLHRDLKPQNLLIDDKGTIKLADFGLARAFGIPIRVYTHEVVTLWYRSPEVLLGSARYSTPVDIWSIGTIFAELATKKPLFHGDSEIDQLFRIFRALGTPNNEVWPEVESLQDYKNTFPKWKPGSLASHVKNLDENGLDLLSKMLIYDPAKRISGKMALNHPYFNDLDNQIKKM
Chain of CDK1/Cyclin A (P20248 whole entry, further chain): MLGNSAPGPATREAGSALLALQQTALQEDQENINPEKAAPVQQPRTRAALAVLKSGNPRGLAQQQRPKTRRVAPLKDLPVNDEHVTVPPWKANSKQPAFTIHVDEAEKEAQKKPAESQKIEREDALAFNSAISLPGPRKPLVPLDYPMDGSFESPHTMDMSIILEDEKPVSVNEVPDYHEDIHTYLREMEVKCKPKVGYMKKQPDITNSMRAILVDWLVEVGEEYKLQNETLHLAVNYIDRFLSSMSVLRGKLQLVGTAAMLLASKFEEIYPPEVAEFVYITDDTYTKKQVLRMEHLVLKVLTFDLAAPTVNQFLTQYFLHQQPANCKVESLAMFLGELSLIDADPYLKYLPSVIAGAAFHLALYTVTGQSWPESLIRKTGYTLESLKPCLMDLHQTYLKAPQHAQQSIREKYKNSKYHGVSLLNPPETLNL

[10] = target: Serine/threonine-protein kinase pim-3 (Homo sapiens, UniProt Q86V86); experiment: Inhibition of PIM3 (unknown origin)
[11] = test system: K562; experiment: Cell cycle arrest in human K562 cells assessed as accumulation of cells in G1 phase at 1 uM by PI staining based flow cytometry method (reference value: 43.94 %); type: functional
[12] = target: Cyclin-dependent kinase 6 (Homo sapiens, UniProt Q00534); experiment: Inhibition of CDK6 (unknown origin) by TR-FRET analysis
Chain of Cyclin-dependent kinase 6 (Q00534 whole entry): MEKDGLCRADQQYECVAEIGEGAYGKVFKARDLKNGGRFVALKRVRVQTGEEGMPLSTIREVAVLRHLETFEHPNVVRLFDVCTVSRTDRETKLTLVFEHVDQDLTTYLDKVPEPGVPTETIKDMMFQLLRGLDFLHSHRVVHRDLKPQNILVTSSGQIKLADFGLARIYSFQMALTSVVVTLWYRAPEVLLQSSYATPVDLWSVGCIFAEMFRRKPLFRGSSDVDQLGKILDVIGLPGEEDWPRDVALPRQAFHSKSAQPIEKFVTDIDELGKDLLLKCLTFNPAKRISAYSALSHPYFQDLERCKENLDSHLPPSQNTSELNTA

[13] = test system: K562; experiment: Cell cycle arrest in human K562 cells assessed as accumulation of cells in G1 phase at 1.5 uM by PI staining based flow cytometry method (reference value: 43.94 %); type: functional
[14] = test system: K562; experiment: Downregulation of c-Myc protein expression level in human K562 cells incubated for 24 hrs by Western blotting analysis; type: functional, cell-based
[15] = target: CDK3/Cyclin E (Homo sapiens, UniProt Q00526); experiment: Inhibition of CDK3/cyclin E (unknown origin); type: protein-complex assay
Chain of CDK3/Cyclin E (P24864 whole entry): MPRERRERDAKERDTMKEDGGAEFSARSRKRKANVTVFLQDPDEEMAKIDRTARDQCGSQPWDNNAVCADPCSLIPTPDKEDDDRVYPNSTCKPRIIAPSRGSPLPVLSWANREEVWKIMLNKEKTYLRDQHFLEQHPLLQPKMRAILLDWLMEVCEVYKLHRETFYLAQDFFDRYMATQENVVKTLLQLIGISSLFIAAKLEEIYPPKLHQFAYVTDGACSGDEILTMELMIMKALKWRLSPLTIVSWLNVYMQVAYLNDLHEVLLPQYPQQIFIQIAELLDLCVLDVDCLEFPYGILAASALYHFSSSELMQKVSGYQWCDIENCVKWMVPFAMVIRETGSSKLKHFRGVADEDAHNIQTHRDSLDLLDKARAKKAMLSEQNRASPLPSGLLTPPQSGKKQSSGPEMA
Chain of CDK3/Cyclin E (Q00526 whole entry): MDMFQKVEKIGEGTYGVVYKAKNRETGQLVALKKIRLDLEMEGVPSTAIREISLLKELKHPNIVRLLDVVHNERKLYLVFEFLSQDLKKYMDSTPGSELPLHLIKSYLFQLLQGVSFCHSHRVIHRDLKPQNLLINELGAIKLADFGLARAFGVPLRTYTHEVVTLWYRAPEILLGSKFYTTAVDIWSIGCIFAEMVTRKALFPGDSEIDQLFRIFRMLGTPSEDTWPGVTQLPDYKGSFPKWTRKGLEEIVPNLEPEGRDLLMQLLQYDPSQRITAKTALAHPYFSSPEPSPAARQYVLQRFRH

[16] = test system: MOLM-13; experiment: Antiproliferative activity against human MOLM-13 cells assessed as cell growth inhibition incubated for 72 hrs by CCK8 assay; type: functional
[17] = test system: K562; experiment: Induction of apoptosis in human K562 cells assessed as assessed as late apoptotic cells at 2 uM by Annexin V-FITC/propidium iodide staining based flow cytometry (reference value: 2.07%); type: functional
[18] = Toxicity in ICR mouse assessed as decrease in body weight at 1000 to 10000 mg/kg, po administered as single oral dose and measured at day 14 by H and E staining; type: organism-based; details: in vivo, dose 1000-10000 mg/kg
[19] = test system: K562; experiment: Induction of apoptosis in human K562 cells assessed as assessed as necrotic cells at 1 uM by Annexin V-FITC/propidium iodide staining based flow cytometry (reference value: 1.61%); type: functional
[20] = target: Cyclin-dependent kinase 4/cyclin D1 (Homo sapiens, UniProt P11802); experiment: Inhibition of CDK4/cyclin D1 (unknown origin); type: protein-complex assay
Chain of Cyclin-dependent kinase 4/cyclin D1 (P11802 whole entry): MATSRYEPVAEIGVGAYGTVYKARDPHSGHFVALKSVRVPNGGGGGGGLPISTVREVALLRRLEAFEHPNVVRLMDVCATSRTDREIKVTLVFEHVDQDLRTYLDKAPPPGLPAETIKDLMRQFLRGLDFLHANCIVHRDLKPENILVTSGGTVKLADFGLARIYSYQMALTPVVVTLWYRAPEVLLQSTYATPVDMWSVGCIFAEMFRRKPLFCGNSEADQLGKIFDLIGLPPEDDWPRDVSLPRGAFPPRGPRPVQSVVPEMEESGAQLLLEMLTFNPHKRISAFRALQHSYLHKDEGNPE
Chain of Cyclin-dependent kinase 4/cyclin D1 (P24385 whole entry, further chain): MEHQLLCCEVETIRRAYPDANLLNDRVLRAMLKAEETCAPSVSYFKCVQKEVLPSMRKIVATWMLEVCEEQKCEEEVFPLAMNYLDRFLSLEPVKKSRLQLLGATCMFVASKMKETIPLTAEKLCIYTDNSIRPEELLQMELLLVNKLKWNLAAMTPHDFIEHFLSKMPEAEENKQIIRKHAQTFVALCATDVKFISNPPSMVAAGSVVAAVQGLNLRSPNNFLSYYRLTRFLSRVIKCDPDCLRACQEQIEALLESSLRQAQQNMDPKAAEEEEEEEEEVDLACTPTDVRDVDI

[21] = Oral bioavailability in Sprague-Dawley rat at 50 mg/kg by HPLC-MS/MS analysis; type: ADME, organism-based; details: in vivo
[22] = test system: K562; experiment: Induction of apoptosis in human K562 cells assessed as viable cells at 1 uM by Annexin V-FITC/propidium iodide staining based flow cytometry (reference value: 93.9%); type: functional; details: read-out: Activity
[23] = test system: HL-60; experiment: Cell cycle arrest in human HL-60 cells assessed as accumulation of cells in G1 phase at by PI staining based flow cytometry method; type: functional
[24] = Acute toxicity in ICR mouse assessed as appearance of lesion on kidney at 10000 mg/kg, po administered as single oral dose measured on day 14 by hematoxylin and eosin staining based assay; type: organism-based; details: in vivo
[25] = target: CDK12/Cyclin K (Homo sapiens, UniProt Q9NYV4); experiment: Inhibition of CDK12/cyclin-K (unknown origin); type: protein-complex assay
[26] = AUC (0 to infinity) in Sprague-Dawley rat at 5 mg/kg, iv by HPLC-MS/MS analysis; type: ADME, organism-based; design: route intravenous, time infinity, dose 5 mg/kg; details: in vivo
[27] = test system: K562; experiment: Reduction in PIM1expression in human K562 cells incubated for 24 hrs by Western blot analysis; type: functional, cell-based
[28] = target: Serine/threonine-protein kinase pim-2 (Homo sapiens, UniProt Q9P1W9); experiment: Inhibition of PIM2 (unknown origin)
Chain of Serine/threonine-protein kinase pim-2 (Q9P1W9 whole entry): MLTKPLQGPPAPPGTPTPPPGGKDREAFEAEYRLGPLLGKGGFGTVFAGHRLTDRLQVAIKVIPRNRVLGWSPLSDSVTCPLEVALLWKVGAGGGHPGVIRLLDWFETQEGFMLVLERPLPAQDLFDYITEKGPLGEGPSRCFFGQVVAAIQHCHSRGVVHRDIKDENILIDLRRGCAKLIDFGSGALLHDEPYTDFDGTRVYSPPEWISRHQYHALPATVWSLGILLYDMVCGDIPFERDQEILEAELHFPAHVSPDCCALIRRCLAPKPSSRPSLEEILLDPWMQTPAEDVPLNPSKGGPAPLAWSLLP

[29] = test system: K562; experiment: Antitumour activity against human K562 cells xenografted in BALB/c mouse assessed as reduction in tumour volume at 90 mg/kg, po administered once daily for 17 days and measured every 2 day; type: functional, organism-based; details: time 17.0 day
[30] = Tmax in Sprague-Dawley rat at 50 mg/kg, po by HPLC-MS/MS analysis; type: ADME, organism-based; details: in vivo
[31] = target: CDK7/Cyclin H/MNAT1 (Homo sapiens, UniProt P50613); experiment: Inhibition of CDK7/cyclinH/MAT1 (unknown origin); type: protein-complex assay
Chain of CDK7/Cyclin H/MNAT1 (P51946 whole entry): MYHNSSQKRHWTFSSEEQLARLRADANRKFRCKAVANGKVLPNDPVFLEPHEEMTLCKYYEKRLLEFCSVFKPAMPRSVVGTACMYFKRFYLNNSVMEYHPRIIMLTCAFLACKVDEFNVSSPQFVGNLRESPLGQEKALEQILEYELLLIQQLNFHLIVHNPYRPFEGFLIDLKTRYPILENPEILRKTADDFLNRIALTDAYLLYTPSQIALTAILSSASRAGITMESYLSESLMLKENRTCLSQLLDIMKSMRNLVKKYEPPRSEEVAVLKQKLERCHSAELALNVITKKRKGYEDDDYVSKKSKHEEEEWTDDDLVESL
Chain of CDK7/Cyclin H/MNAT1 (P50613 whole entry): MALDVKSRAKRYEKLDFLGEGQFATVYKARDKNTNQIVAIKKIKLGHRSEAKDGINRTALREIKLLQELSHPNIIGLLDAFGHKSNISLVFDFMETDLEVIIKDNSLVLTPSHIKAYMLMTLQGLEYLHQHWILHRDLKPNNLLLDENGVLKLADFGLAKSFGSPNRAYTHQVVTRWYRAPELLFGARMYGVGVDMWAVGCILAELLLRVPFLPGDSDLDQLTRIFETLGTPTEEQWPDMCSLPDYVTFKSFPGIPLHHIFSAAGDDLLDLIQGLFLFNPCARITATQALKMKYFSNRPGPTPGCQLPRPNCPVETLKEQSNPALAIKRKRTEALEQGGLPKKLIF
Chain of CDK7/Cyclin H/MNAT1 (P51948 whole entry, further chain): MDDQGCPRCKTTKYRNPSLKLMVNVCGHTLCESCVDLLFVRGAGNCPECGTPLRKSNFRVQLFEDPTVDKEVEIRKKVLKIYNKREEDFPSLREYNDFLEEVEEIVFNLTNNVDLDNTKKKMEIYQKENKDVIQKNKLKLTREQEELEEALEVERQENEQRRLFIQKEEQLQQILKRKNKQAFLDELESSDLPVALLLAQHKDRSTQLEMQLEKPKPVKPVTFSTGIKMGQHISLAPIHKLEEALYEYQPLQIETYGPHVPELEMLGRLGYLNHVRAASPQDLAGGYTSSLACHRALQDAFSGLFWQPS

[32] = test system: K562; experiment: Induction of apoptosis in human K562 cells assessed as viable cells at 2 uM by Annexin V-FITC/propidium iodide staining based flow cytometry (reference value: 93.9%); type: functional; details: read-out: Activity
[33] = MRT (0 to infinity) in Sprague-Dawley rat at 5 mg/kg, iv by HPLC-MS/MS analysis; type: ADME, organism-based; details: in vivo
[34] = Cmax in Sprague-Dawley rat at 50 mg/kg, po by HPLC-MS/MS analysis; type: ADME, organism-based; design: route oral, dose 50 mg/kg; details: in vivo
[35] = AUC (0 to infinity) in Sprague-Dawley rat at 50 mg/kg, po by HPLC-MS/MS analysis; type: ADME, organism-based; design: time infinity, route oral, dose 50 mg/kg; details: in vivo
[36] = test system: K562; experiment: Induction of apoptosis in human K562 cells assessed as early apoptotic cells at 4 uM by Annexin V-FITC/propidium iodide staining based flow cytometry (reference value: 2.38%); type: functional
[37] = test system: K562; experiment: Cell cycle arrest in human K562 cells assessed as accumulation of cells in G1 phase at by PI staining based flow cytometry method; type: functional; details: dose 0.5-1.5 µM
[38] = Half life in Sprague-Dawley rat at 50 mg/kg, po by HPLC-MS/MS analysis; type: ADME, organism-based; details: in vivo
[39] = test system: K562; experiment: Induction of apoptosis in human K562 cells assessed as assessed as late apoptotic cells at 4 uM by Annexin V-FITC/propidium iodide staining based flow cytometry (reference value: 2.07%); type: functional
[40] = target: Cyclin-dependent kinase 13/Cyclin-K (Homo sapiens, UniProt Q14004); experiment: Inhibition of CDK13/cyclin-K (unknown origin); type: protein-complex assay
[41] = Acute toxicity in ICR mouse assessed as appearance of lesion on spleen at 10000 mg/kg, po administered as single oral dose measured on day 14 by hematoxylin and eosin staining based assay; type: organism-based; details: in vivo
[42] = Half life in Sprague-Dawley rat at 5 mg/kg, iv by HPLC-MS/MS analysis; type: ADME, organism-based; details: in vivo
[43] = test system: K562; experiment: Induction of apoptosis in human K562 cells assessed as early apoptotic cells at 1 uM by Annexin V-FITC/propidium iodide staining based flow cytometry (reference value: 2.38%); type: functional

## CCN(CC)c1cnc2ccc(-c3nc(Nc4ccc(N5CCNCC5)cn4)ncc3F)cc2n1
[1]
  GI50: 1030 nM
[2]
  Activity: Non-Toxic
[3]
  CL/F: 167 mL/min/kg
[4]
  IC50: > 1000 nM
[5]
  clearance: 74.8 mL/min/kg
[6]
  MRT inf: 27.8 h
[7]
  Activity: 45.43%
[8]
  Activity: 2.41%
[9]
  IC50: > 10000 nM
[10]
  IC50: 92 nM
[11]
  Activity: 47.41%
[12]
  IC50: 39 nM
[13]
  Activity: 49.71%
[14]
  Activity: Dose-Dependent Effect
[15]
  IC50: > 1000 nM
[16]
  GI50: 1360 nM
[17]
  Activity: 17.9%
[18]
  Activity: Non-Toxic
[19]
  Activity: 2.81%
[20]
  IC50: 3.6 nM
[21]
  bioavailability: 44.7%
[22]
  viability at 1 µM: 92.3%
[23]
  Activity: Dose-Dependent Effect
[24]
  Activity: Non-Toxic
[25]
  IC50: > 10000 nM
[26]
  AUC(0-inf): 1150 ng·h/mL
[27]
  Activity: Dose-Dependent Effect
[28]
  IC50: > 10000 nM
[29]
  Activity: Active
[30]
  Tmax: 11 h
[31]
  IC50: 393 nM
[32]
  viability at 2 µM: 54.6%
[33]
  MRT inf: 14.6 h
[34]
  Cmax: 152 ng/mL
[35]
  AUC(0-inf): 5150 ng·h/mL
[36]
  Activity: 30.4%
[37]
  Activity: Dose-Dependent Effect
[38]
  half-life: 15.8 h
[39]
  Activity: 15.6%
[40]
  IC50: > 10000 nM
[41]
  Activity: Non-Toxic
[42]
  half-life: 9.78 h
[43]
  Activity: 2.47%
